Reference: patent publication US20240158446A1, “CYCLIC COMPOUND HAVING SELECTIVE INHIBITORY ACTION ON KRAS OVER HRAS AND NRAS” (CHUGAI SEIYAKU KABUSHIKI KAISHA, priority 2021, published 2024)
*1 amine or outer side, *2 acyl side, *3 side chain or, on linkers, in order; H or OH if unused. Where a SMILES comes first, the peptide text is derived from it. Bridges are numbered along the chain shown (N, C = ends). [ ]: non-standard residue; d: D form. The star is where a group is joined. hPhe(3-Cl-4-CF3) = N[C@@H](CCc1ccc(C(F)(F)F)c(Cl)c1)C(=O)O; NPrPhe(4-CF3) = CCCN[C@@H](Cc1ccc(C(F)(F)F)cc1)C(=O)O; NEtAsp = CCN([C@@H](CC(=O)[*:3])C(=O)[*:2])[*:1]; NMeGly(cPent) = CN[C@H](C(=O)O)C1CCCC1; Ac4c(3,3-Me2) = CC1(C)CC(N)(C(=O)O)C1; NEtLeu = CCN[C@@H](CC(C)C)C(=O)O; NMeD = CN[C@@H](CC(=O)O)C(=O)O; NMeL = CN[C@@H](CC(C)C)C(=O)O; Morpholide = C1CN(*)CCO1; Ac5c = NC1(C(=O)O)CCCC1; NEtG = CCNCC(=O)O; Sar = CNCC(=O)O; Propyl = CCC*

Key:
[1] = target: GDP-bound HRAS wild-type protein (Homo sapiens, UniProt P01112); assay: Binding to HRAS by surface plasmon resonance (SPR), Single Cycle Kinetics; conditions: ratio of KD for GDP-bound HRAS wild-type protein to KD for KRAS, SPR
[2] = system: human lung cancer strain NCI-H441; assay: cells; conditions: NCI-H441, 96 h, read-out: NCI-H441 IC50 (nM), NCI-H441 cell proliferation, 4 days, CellTiter-Glo;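 further: cell proliferation inhibition after four days measured by CellTiter-Glo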
[3] = target: GDP-bound KRAS wild-type protein (Homo sapiens, UniProt P01116); assay: Binding to KRAS by surface plasmon resonance (SPR), Single Cycle Kinetics; conditions: SPR, Single Cycle Kinetics, GDP-bound KRAS wild-type protein; read-out: KRAS KD
[4] = target: GDP-bound NRAS wild-type protein (Homo sapiens, UniProt P01111); assay: Binding to NRAS by surface plasmon resonance (SPR), Single Cycle Kinetics; conditions: ratio of KD for GDP-bound NRAS wild-type protein to KD for KRAS, SPR
GDP-bound NRAS wild-type protein, sequence (P01111 whole entry): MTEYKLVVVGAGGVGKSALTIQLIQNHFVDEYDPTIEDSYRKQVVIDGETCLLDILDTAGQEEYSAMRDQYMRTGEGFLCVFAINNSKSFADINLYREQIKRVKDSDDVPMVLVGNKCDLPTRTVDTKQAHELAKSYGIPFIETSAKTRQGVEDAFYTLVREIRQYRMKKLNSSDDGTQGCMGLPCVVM

GDP-bound KRAS wild-type protein, sequence (P01116 whole entry): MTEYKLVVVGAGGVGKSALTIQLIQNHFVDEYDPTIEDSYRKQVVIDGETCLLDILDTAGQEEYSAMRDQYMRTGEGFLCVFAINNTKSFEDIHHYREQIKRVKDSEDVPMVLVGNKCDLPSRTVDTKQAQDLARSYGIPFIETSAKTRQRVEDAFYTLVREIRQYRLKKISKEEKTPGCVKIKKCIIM
GDP-bound HRAS wild-type protein, sequence (P01112 whole entry): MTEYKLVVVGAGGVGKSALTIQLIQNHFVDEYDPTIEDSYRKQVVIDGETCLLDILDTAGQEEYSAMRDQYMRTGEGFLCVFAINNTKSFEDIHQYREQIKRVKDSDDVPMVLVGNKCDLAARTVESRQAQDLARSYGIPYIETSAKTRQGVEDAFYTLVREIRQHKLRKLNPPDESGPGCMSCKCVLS

SMILES	HRAS/KRAS (KD ratio) [1]	IC50 [2] [nM]	Kd [3] [nM]	NRAS/KRAS (KD ratio) [4]
CCCO[C@H](C)[C@@H]1NC(=O)[C@H](CC(C)C)N(C)C(=O)C[C@@H](C(=O)N2CCOCC2)N(C)C(=O)[C@H](C2CCCC2)N(C)C(=O)C2(CC(C)(C)C2)NC(=O)[C@@H]2CCCN2C(=O)[C@H](CCc2ccc(C(F)(F)F)c(Cl)c2)NC(=O)CN(C)C(=O)[C@H](Cc2ccc(C(F)(F)F)cc2)N(CCC)C(=O)CN(C)C(=O)CN(C)C1=O [PP1965] ([NMeL]T(Propyl)[Sar][Sar][NPrPhe(4-CF3)][Sar][hPhe(3-Cl-4-CF3)]P[Ac4c(3,3-Me2)][NMeGly(cPent)][NMeD]-Morpholide; lactam N-11)	B (a compound having 3 or more and less than 10 is denoted as B)	17.4	0.3	B (a compound having 3 or more and less than 10 is denoted as B)
CCCN1C(=O)CN(C)C(=O)CNC(=O)[C@H]([C@@H](C)CC)NC(=O)[C@H](CC(C)C)N(CC)C(=O)C[C@@H](C(=O)N2CCOCC2)N(C)C(=O)[C@H](C2CCCC2)N(C)C(=O)C2(CCCC2)NC(=O)[C@@H]2CCCN2C(=O)[C@H](CCc2ccc(C(F)(F)F)c(Cl)c2)NC(=O)CN(C)C(=O)[C@@H]1Cc1ccc(C(F)(F)F)cc1 [PP1967] ([NEtLeu]IG[Sar][NPrPhe(4-CF3)][Sar][hPhe(3-Cl-4-CF3)]P[Ac5c][NMeGly(cPent)][NMeD]-Morpholide; lactam N-11)	B (a compound having 3 or more and less than 10 is denoted as B)	10.9	0.36	B (a compound having 3 or more and less than 10 is denoted as B)
CCCN1C(=O)CN(CC)C(=O)CNC(=O)[C@H]([C@@H](C)CC)NC(=O)[C@H](CC(C)C)N(C)C(=O)C[C@@H](C(=O)N2CCOCC2)N(C)C(=O)[C@H](C2CCCC2)N(C)C(=O)C2(CCCC2)NC(=O)[C@@H]2CCCN2C(=O)[C@H](CCc2ccc(C(F)(F)F)c(Cl)c2)NC(=O)CN(C)C(=O)[C@@H]1Cc1ccc(C(F)(F)F)cc1 [PP1968] ([NMeL]IG[NEtG][NPrPhe(4-CF3)][Sar][hPhe(3-Cl-4-CF3)]P[Ac5c][NMeGly(cPent)][NMeD]-Morpholide; lactam N-11)	C (A compound having a KD ratio of 0.1 or more and less than 3 is denoted as C)	13.5	0.76	C (A compound having a KD ratio of 0.1 or more and less than 3 is denoted as C)
CCCN1C(=O)CN(C)C(=O)CNC(=O)[C@H]([C@@H](C)CC)NC(=O)[C@H](CC(C)C)N(C)C(=O)C[C@@H](C(=O)N2CCOCC2)N(C)C(=O)[C@H](C2CCCC2)N(C)C(=O)C2(CCCC2)NC(=O)[C@@H]2CCCN2C(=O)[C@H](CCc2ccc(C(F)(F)F)c(Cl)c2)NC(=O)CN(CC)C(=O)[C@@H]1Cc1ccc(C(F)(F)F)cc1 [PP1969] ([NMeL]IG[Sar][NPrPhe(4-CF3)][NEtG][hPhe(3-Cl-4-CF3)]P[Ac5c][NMeGly(cPent)][NMeD]-Morpholide; lactam N-11)	C (A compound having a KD ratio of 0.1 or more and less than 3 is denoted as C)	74	2.1	B (a compound having 3 or more and less than 10 is denoted as B)
CCCN1C(=O)CN(C)C(=O)CNC(=O)[C@H]([C@@H](C)CC)NC(=O)[C@H](CC(C)C)N(C)C(=O)C[C@@H](C(=O)N2CCOCC2)N(CC)C(=O)[C@H](C2CCCC2)N(C)C(=O)C2(CCCC2)NC(=O)[C@@H]2CCCN2C(=O)[C@H](CCc2ccc(C(F)(F)F)c(Cl)c2)NC(=O)CN(C)C(=O)[C@@H]1Cc1ccc(C(F)(F)F)cc1 [PP1970] ([NMeL]IG[Sar][NPrPhe(4-CF3)][Sar][hPhe(3-Cl-4-CF3)]P[Ac5c][NMeGly(cPent)][NEtAsp]-Morpholide; lactam N-11)	B (a compound having 3 or more and less than 10 is denoted as B)	16.8	0.62	B (a compound having 3 or more and less than 10 is denoted as B)
CCCN1C(=O)CN(C)C(=O)[C@H](C)NC(=O)[C@H]([C@@H](C)CC)NC(=O)[C@H](CC(C)C)N(C)C(=O)C[C@@H](C(=O)N2CCOCC2)N(C)C(=O)[C@H](C2CCCC2)N(C)C(=O)C2(CCCC2)NC(=O)[C@@H]2CCCN2C(=O)[C@H](CCc2ccc(C(F)(F)F)c(Cl)c2)NC(=O)CN(C)C(=O)[C@@H]1Cc1ccc(C(F)(F)F)cc1 [PP1971] ([NMeL]IA[Sar][NPrPhe(4-CF3)][Sar][hPhe(3-Cl-4-CF3)]P[Ac5c][NMeGly(cPent)][NMeD]-Morpholide; lactam N-11)	B (a compound having 3 or more and less than 10 is denoted as B)	38	5	B (a compound having 3 or more and less than 10 is denoted as B)
CC[C@H](C)[C@@H]1NC(=O)[C@H](CCOC)N(C)C(=O)C[C@@H](C(=O)N(C)CC)N(C)C(=O)[C@H](C2CCCC2)N(C)C(=O)C2(CC(C)(C)C2)NC(=O)[C@@H]2C[C@H](C)CN2C(=O)[C@H](CCc2cc(F)c(C(F)(F)F)c(F)c2)NC(=O)CN(C)C(=O)[C@H](Cc2ccc(C(F)(F)F)cc2)N2CC/C=C\C[C@@H](C2=O)N(C)C(=O)CN(C)C1=O [PP1972]	A (a compound having 10 or more and less than 20 is denoted as A)	13.2	0.15	A (a compound having 10 or more and less than 20 is denoted as A)
CCCOC[C@H]1C(=O)N[C@@H]([C@@H](C)CC)C(=O)N(C)CC(=O)N(C)[C@H]2C/C=C\CCN(C2=O)[C@@H](Cc2ccc(C(F)(F)F)cc2)C(=O)N(C)CC(=O)N[C@@H](CCc2ccc(C(F)(F)F)c(OC)c2)C(=O)N2C[C@H](OCC)C[C@H]2C(=O)NC2(CC(C)(C)C2)C(=O)N(C)[C@@H](C2CCCC2)C(=O)N(C)[C@H](C(=O)N(C)CC)CC(=O)N1C [PP1973]	B (a compound having 3 or more and less than 10 is denoted as B)	8.7	0.099	A (a compound having 10 or more and less than 20 is denoted as A)
CCCN(C)C(=O)[C@@H]1CC(=O)N(C)[C@@H](CCOC)C(=O)N[C@@H]([C@@H](C)CC)C(=O)N(C)CC(=O)N(C)[C@H]2C/C=C\CCN(C2=O)[C@@H](Cc2ccc(C(F)(F)F)cc2)C(=O)N(C)CC(=O)N[C@@H](CCc2cc(F)c(C(F)(F)F)c(F)c2)C(=O)N2C[C@@H](C)C[C@H]2C(=O)NC2(CC(C)(C)C2)C(=O)N(C)[C@@H](C2CCCC2)C(=O)N1C [PP1974]	A (a compound having 10 or more and less than 20 is denoted as A)	50	0.18	A (a compound having 10 or more and less than 20 is denoted as A)
CCCN(C)C(=O)[C@@H]1CC(=O)N(C)[C@@H](CCOC)C(=O)N[C@@H]([C@@H](C)CC)C(=O)N(C)CC(=O)N(C)[C@H]2C/C=C\CCN(C2=O)[C@@H](Cc2ccc(C(F)(F)F)cc2)C(=O)N(C)CC(=O)N[C@@H](CCc2ccc(C(F)(F)F)c(OC)c2)C(=O)N2C[C@H](OCC)C[C@H]2C(=O)NC2(CC(C)(C)C2)C(=O)N(C)[C@@H](C2CCCC2)C(=O)N1C [PP1975]	A (a compound having 10 or more and less than 20 is denoted as A)	13.4	0.11	A (a compound having 10 or more and less than 20 is denoted as A)
